These results are taken from ChEMBL document CHEMBL4020733, “Approaches towards the development of chimeric DPP4/ACE inhibitors for treating metabolic syndrome” (Bioorg Med Chem Lett, 2017).

Series [1] in a line: Inhibition of APP (unknown origin). Also on record: species or system Homo sapiens.
A further series concerns the target Cytochrome P450 2C19 (Homo sapiens, UniProt P33261). The series can be described thus: Inhibition of CYP2C19 (unknown origin) up to 10 uM. The format is ADME.
Series [2] concerns Liver. In words: Stability in human liver microsomes. It is filed as ADME, microsome. (Microsomes from liver hold many membrane-bound enzymes, among them those of drug oxidation.)
Series [3] concerns the target Dipeptidyl peptidase 4 (Rattus norvegicus, UniProt P14740). The series can be described thus: Inhibition of Wistar rat plasma DPP4.
Series [4] deals with Dipeptidyl peptidase 4 (Mus musculus, UniProt P28843). The series can be described thus: Inhibition of ob/ob mouse plasma DPP4.
Sequence of Dipeptidyl peptidase 4 (Mus musculus, UniProt P28843) (P28843 whole entry): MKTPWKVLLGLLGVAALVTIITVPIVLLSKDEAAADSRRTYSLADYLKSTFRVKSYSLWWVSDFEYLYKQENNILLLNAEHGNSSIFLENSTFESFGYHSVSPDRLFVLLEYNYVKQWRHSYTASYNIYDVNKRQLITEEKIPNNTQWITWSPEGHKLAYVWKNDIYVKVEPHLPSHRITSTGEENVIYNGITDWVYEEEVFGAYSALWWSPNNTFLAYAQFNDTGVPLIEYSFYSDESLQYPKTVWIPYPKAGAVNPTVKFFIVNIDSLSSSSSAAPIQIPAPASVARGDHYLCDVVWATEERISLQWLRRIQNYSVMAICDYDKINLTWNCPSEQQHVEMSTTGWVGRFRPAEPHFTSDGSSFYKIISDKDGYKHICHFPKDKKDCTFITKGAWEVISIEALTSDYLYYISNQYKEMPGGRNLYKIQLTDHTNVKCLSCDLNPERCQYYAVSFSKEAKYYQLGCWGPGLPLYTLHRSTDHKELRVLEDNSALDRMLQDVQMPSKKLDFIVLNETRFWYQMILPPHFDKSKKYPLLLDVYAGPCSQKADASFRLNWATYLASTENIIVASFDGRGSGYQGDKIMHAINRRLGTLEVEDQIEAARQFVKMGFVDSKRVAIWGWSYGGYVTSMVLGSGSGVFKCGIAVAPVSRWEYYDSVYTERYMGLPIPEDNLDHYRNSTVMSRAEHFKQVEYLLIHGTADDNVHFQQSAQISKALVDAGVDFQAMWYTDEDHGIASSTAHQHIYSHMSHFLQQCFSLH
Series [5] concerns the target Angiotensin-converting enzyme (Homo sapiens, UniProt P12821). The series can be described thus: Inhibition of human plasma ACE.
Series [6] can be described thus: Plasma protein binding in human. The format is ADME, cell-free. The conditions noted are these: read-out: PPB (converted).
A short description of series [7]: Plasma protein binding in mouse. The format is ADME, cell-free. The conditions noted are these: read-out: PPB (converted).
Series [8] is described as follows: Plasma protein binding in rat. The format is ADME, cell-free. The conditions noted are these: read-out: PPB (converted).
The next series concerns the target Dipeptidyl peptidase 8 (Homo sapiens, UniProt Q6V1X1). The series can be described thus: Inhibition of DPP8 (unknown origin).
The target in a further series is Dipeptidyl peptidase 9 (Homo sapiens, UniProt Q86TI2). In words: Inhibition of DPP9 (unknown origin).
Sequence of Dipeptidyl peptidase 9 (Q86TI2 whole entry): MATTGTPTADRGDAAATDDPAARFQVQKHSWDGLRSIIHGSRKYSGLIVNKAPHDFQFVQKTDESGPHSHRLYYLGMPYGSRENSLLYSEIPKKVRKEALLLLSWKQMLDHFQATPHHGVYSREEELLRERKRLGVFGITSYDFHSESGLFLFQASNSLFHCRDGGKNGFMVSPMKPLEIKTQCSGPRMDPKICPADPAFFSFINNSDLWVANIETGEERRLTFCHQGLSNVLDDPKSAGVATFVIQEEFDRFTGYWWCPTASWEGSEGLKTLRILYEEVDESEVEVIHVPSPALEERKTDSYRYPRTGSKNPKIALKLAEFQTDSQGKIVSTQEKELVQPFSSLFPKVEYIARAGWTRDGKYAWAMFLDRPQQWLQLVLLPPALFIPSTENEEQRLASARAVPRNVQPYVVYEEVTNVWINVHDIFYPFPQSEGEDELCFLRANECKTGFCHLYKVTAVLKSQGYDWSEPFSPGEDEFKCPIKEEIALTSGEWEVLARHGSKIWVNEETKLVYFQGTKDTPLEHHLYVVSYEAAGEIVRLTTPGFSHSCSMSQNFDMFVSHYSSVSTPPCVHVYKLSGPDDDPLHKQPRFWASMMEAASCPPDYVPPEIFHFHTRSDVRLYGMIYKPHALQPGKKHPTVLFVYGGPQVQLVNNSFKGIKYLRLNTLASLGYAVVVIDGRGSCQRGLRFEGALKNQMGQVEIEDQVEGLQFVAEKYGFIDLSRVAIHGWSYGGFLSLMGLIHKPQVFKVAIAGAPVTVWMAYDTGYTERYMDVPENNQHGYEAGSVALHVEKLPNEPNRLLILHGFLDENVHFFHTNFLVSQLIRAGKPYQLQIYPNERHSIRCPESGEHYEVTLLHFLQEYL
Another series concerns the target Neprilysin (Homo sapiens, UniProt P08473). In words: Inhibition of NEP (unknown origin).
Another series deals with Aminopeptidase N (Homo sapiens, UniProt P15144). In words: Inhibition of APN (unknown origin).
The target in the next series is T1, Cytochrome P450 1A2 (Homo sapiens, UniProt P05177).
T1 sequence (P05177 whole entry): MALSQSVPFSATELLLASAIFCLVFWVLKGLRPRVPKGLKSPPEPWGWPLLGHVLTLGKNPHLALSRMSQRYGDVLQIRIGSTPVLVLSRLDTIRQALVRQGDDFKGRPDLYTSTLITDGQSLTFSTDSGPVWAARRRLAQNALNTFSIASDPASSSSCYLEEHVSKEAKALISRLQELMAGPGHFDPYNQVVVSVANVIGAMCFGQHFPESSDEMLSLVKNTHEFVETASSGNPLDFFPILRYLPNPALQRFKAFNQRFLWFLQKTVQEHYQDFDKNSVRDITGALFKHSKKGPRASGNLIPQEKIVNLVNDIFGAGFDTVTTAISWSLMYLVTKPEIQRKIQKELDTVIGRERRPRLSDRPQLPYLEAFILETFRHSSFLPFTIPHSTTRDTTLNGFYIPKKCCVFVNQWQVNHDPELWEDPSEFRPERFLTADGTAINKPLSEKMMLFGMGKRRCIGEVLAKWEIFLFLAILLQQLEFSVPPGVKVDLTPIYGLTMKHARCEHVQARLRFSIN
In words: Inhibition of CYP1A2 (unknown origin) up to 10 uM. The format is ADME.

For another series, the target named is Cytochrome P450 2C9 (Homo sapiens, UniProt P11712). The series can be described thus: Inhibition of CYP2C9 (unknown origin) up to 10 uM. It is filed as ADME.
Sequence of Cytochrome P450 2C9 (P11712 whole entry): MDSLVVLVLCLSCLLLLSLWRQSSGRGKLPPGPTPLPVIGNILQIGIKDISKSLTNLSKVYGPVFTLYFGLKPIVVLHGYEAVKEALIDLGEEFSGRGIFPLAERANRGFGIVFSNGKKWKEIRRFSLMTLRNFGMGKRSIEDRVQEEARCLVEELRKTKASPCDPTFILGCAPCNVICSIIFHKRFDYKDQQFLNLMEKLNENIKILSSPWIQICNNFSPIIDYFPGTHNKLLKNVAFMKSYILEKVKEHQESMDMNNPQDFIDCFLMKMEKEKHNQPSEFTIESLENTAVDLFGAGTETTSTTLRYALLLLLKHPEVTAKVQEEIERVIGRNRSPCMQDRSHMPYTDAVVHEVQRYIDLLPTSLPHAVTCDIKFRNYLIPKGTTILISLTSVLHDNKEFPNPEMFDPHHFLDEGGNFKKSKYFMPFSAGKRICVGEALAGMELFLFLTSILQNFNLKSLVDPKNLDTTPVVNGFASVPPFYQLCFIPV
A further series addresses Cytochrome P450 2D6 (Homo sapiens, UniProt P10635). In words: Inhibition of CYP2D6 (unknown origin) up to 10 uM. The format is ADME.
The target in the next series is Cytochrome P450 3A4 (Homo sapiens, UniProt P08684). The series can be described thus: Inhibition of CYP3A4 (unknown origin) up to 10 uM. It is filed as ADME.
In series [9] the test system is Liver. In words: Stability in rat liver microsomes. The format is ADME, microsome.
Series [10] relates to Liver. The series can be described thus: Stability in dog liver microsomes. The format is ADME, Canis lupus familiaris, microsome.
Series [11] can be described thus: Tmax in Wistar rat plasma at 30 mg/kg, po. It is filed as ADME, organism-based.
Series [12] is described as follows: Cmax in Wistar rat plasma at 30 mg/kg, po. The format is ADME, organism-based. Also on record: dose 30 mg/kg, route oral.
Series [13] is described as follows: AUC (0 to 24 hrs) in Wistar rat plasma at 30 mg/kg, po. It is filed as ADME, organism-based. Also on record: time < 24 hr, dose 30 mg/kg, route oral.
The target of another series is T2, Prolyl endopeptidase (Homo sapiens, UniProt P48147).
T2 sequence (P48147 whole entry): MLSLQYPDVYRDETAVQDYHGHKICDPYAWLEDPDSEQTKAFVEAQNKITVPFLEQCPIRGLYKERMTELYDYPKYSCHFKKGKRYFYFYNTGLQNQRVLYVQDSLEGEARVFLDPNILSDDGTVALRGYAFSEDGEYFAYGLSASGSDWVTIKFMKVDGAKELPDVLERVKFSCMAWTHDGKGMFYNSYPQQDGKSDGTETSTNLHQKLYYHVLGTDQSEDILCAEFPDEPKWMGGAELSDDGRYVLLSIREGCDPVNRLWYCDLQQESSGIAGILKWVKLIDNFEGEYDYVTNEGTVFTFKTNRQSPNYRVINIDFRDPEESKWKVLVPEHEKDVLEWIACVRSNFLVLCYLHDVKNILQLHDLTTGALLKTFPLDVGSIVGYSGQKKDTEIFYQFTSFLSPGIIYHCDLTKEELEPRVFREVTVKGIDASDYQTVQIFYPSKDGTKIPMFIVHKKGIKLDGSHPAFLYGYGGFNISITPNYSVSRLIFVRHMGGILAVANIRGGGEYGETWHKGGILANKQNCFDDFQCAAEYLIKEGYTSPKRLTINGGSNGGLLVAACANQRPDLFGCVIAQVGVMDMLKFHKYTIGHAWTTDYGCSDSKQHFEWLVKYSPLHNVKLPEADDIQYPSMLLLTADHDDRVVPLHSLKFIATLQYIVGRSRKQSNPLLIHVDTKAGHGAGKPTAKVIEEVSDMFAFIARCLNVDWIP
The series can be described thus: Inhibition of PPCE (unknown origin).

Sequence of Angiotensin-converting enzyme (P12821 whole entry): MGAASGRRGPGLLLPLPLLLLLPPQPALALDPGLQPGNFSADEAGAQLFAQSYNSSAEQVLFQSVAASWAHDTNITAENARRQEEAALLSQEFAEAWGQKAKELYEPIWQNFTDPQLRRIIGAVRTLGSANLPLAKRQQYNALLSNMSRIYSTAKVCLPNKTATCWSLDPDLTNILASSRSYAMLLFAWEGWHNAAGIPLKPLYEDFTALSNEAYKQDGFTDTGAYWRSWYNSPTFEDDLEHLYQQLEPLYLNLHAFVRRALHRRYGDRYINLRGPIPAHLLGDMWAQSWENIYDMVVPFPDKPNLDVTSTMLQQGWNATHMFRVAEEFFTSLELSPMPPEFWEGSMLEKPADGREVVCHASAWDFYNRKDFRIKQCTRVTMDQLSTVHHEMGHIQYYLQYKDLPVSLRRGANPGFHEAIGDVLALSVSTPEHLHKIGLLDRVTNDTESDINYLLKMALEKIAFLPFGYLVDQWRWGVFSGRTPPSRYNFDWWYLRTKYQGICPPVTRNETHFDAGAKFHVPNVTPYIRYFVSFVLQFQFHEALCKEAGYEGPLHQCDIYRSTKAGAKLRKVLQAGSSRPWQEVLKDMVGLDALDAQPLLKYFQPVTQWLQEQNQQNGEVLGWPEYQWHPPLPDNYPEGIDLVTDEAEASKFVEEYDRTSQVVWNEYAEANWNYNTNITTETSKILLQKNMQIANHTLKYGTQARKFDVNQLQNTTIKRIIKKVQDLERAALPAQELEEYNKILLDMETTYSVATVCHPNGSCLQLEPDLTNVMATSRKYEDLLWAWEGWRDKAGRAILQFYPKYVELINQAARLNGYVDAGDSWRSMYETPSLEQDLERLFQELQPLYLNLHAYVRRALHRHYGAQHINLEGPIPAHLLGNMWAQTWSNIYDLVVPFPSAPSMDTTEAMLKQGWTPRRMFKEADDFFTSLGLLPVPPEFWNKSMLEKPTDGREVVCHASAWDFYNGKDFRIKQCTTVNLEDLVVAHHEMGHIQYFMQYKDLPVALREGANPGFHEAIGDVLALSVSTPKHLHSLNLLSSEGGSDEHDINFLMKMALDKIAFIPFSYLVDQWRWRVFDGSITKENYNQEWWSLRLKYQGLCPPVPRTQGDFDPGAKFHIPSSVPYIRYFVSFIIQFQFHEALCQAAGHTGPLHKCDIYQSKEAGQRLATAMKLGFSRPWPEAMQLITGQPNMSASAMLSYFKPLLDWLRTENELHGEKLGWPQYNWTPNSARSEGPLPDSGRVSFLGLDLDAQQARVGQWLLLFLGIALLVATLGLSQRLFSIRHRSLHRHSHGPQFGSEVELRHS
Sequence of Neprilysin (P08473 whole entry): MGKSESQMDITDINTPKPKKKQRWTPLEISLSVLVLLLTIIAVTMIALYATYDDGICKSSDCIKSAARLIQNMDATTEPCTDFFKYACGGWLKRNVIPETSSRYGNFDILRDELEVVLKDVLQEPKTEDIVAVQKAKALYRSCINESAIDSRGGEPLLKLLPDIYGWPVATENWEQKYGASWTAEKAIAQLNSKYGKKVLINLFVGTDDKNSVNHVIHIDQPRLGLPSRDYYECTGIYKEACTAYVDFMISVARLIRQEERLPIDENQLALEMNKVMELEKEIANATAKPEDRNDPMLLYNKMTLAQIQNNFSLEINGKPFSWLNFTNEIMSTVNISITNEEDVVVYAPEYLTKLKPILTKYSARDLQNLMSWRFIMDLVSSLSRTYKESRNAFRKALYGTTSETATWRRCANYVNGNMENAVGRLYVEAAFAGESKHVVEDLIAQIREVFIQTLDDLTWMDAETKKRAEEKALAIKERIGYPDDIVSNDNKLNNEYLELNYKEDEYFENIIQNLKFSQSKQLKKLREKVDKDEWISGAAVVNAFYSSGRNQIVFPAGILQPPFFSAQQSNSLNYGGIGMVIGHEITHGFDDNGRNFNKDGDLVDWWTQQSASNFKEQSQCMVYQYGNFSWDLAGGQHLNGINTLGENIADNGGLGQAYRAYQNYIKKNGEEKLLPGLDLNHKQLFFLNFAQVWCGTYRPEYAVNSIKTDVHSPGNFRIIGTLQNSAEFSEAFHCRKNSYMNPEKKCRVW
Sequence of Dipeptidyl peptidase 4 (Rattus norvegicus, UniProt P14740) (P14740 whole entry): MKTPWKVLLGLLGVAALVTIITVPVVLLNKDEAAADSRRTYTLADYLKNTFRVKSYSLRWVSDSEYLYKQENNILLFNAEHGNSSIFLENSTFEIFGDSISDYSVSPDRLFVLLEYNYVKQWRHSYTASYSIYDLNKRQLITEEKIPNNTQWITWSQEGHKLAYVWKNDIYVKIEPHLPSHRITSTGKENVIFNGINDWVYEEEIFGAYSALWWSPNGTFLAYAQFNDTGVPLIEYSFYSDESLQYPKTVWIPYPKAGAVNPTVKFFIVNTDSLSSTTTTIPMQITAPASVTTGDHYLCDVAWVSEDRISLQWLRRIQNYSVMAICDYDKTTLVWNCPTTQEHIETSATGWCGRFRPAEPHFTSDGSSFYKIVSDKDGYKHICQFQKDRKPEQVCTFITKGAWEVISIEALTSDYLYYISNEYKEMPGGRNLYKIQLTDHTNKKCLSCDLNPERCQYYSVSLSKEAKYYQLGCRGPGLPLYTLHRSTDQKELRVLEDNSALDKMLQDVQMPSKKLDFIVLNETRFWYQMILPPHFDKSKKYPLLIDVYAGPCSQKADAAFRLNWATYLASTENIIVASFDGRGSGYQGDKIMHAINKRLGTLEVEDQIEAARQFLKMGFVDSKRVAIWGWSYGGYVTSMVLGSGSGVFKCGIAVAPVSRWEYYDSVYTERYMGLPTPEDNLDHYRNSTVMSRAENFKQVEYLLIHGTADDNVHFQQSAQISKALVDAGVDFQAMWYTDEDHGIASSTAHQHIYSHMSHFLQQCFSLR

Turning to `C[C@H](N[C@@H](CCc1ccccc1)C(=O)O)C(=O)N1C[C@@H](NC(=O)C[C@H](N)Cc2cc(F)c(F)cc2F)C[C@H]1C(=O)O`, the IC50 (in general, the concentration needed to halve the response being measured) in series [1] was over 100 µM; against Dipeptidyl peptidase 4 [3], 155 nM; on Dipeptidyl peptidase 4 [4], 217 nM; in [5], 158 nM; on Dipeptidyl peptidase 8 it was 27 µM; against Dipeptidyl peptidase 9 it was 44 µM. The IC50 at Neprilysin and at Aminopeptidase N was over 100 µM each time. The “inhibition (INH)” value on Cytochrome P450 2C19, on Cytochrome P450 1A2, against Cytochrome P450 2C9, against Cytochrome P450 2D6 and against Cytochrome P450 3A4 was “Not Active” each time. Further, the Stability entry in the series on Liver [2], in the series with Liver [9] and with Liver [10] was “Stable” in each case. Moreover, the fraction unbound is 0.707 in series [6], 0.51 in series [7] and 0.58 in [8]. In [11], the Tmax (as a rule, the time at which the peak concentration occurs) was 1.5 h. In [12], the Cmax (usually the maximum level reached in the sampled fluid or tissue) was 260 ng/mL. The AUC(0-t) (usually the area under the concentration-time curve up to a stated or last time point) at 24 h in series [13] amounted to 610 ng·h/mL.

On to `CCC[C@H](N[C@@H](CCc1ccccc1)C(=O)O)C(=O)N1C[C@@H](NC(=O)C[C@H](N)Cc2cc(F)c(F)cc2F)C[C@H]1C(=O)O`, for which the half-maximal inhibitory concentration (IC50) in series [1] was over 100 µM; at Dipeptidyl peptidase 4 [3], 1230 nM; on Dipeptidyl peptidase 4 [4] it was 2470 nM; in series [5] it was 51 nM; against Dipeptidyl peptidase 8 it was 57 µM; against Dipeptidyl peptidase 9, over 100 µM. The IC50 against Prolyl endopeptidase, at Neprilysin and at Aminopeptidase N was over 100 µM throughout. Besides, the “inhibition (INH)” value on Cytochrome P450 2C19, against Cytochrome P450 1A2, against Cytochrome P450 2C9, against Cytochrome P450 2D6 and at Cytochrome P450 3A4 was “Not Active” each time. For the same compound, the Stability entry with Liver [2], in the series on Liver [9] and in the series on Liver [10] was “Stable” in each case. Moreover, the fraction unbound is 0.597 in series [6], 0.015 in [7] and 0.564 in series [8]. The Tmax in [11] is 3.3 h. Also, in series [12], the Cmax was 2500 ng/mL. This compound also showed an exposure AUC(0-t) at 24 h in series [13] of 21500 ng·h/mL.

As to `CC[C@H](N[C@@H](CCc1ccccc1)C(=O)O)C(=O)N1C[C@@H](NC(=O)C[C@H](N)Cc2cc(F)c(F)cc2F)C[C@H]1C(=O)O`, the IC50 in [1] is over 100 µM; on Dipeptidyl peptidase 4 [3] it was 319 nM; against Dipeptidyl peptidase 4 [4], 488 nM; in [5], 8.6 to 8.9 nM; at Dipeptidyl peptidase 8, 69 µM; at Dipeptidyl peptidase 9, over 100 µM. For the same compound, the IC50 against Prolyl endopeptidase, against Neprilysin and at Aminopeptidase N was over 100 µM throughout. Also, the “inhibition (INH)” value at Cytochrome P450 2C19, against Cytochrome P450 1A2, at Cytochrome P450 2C9, against Cytochrome P450 2D6 and at Cytochrome P450 3A4 was “Not Active” each time. The Stability entry in the series on Liver [2], with Liver [9] and in the series on Liver [10] was “Stable” each time. In addition, the fraction unbound was 0.636 in series [6], 0.129 in series [7] and 0.403 in [8]. The Tmax in series [11] is 1.67 h. This compound also gave a Cmax in [12] of 550 ng/mL. The compound further showed an AUC(0-t) at 24 h in series [13] of 2360 ng·h/mL.

As to `CCCC[C@H](N[C@@H](CCc1ccccc1)C(=O)O)C(=O)N1C[C@@H](NC(=O)C[C@H](N)Cc2cc(F)c(F)cc2F)C[C@H]1C(=O)O`, the IC50 in [1] is over 100 µM; on Dipeptidyl peptidase 4 [3], 4170 nM; at Dipeptidyl peptidase 4 [4], 7170 nM; in series [5], 279 nM; against Dipeptidyl peptidase 8, over 100 µM; against Dipeptidyl peptidase 9 it was over 100 µM. Besides, the IC50 against Prolyl endopeptidase, on Neprilysin and on Aminopeptidase N was over 100 µM each time. Further, the “inhibition (INH)” value against Cytochrome P450 2C19, against Cytochrome P450 1A2, on Cytochrome P450 2C9, against Cytochrome P450 2D6 and against Cytochrome P450 3A4 was “Not Active” each time. Moreover, the Stability result in the series on Liver [2], in the series on Liver [9] and in the series with Liver [10] was “Stable” in each case. The fraction unbound in series [6] is 0.327; in [7], 0.014; in series [8], 0.583. In addition, the Tmax in series [11] amounted to 2 h. For the same compound, the concentration in series [12] peaked (Cmax) at 1330 ng/mL. In series [13], this compound returned an AUC(0-t) at 24 h of 13900 ng·h/mL.
